Measured values taken from ChEMBL document CHEMBL3046002, “Synthesis and antimicrobial activity of coumarin pyrazole pyrimidine 2,4,6(1H,3H,5H)triones and thioxopyrimidine4,6(1H,5H)diones” (2013).
≈ marks a conversion by molar mass, not a printed value. Calls of active or inactive are those of the source. The calls are words filed in the database; no cut-off is given here.

Columns and labels:
[1] = system: Staphylococcus aureus; assay: Antimicrobial activity against Staphylococcus aureus assessed as growth inhibition after 24 hr by broth dilution method; assay type: functional
[2] = system: Aspergillus niger; assay: Antimicrobial activity against Aspergillus niger assessed as diameter of growth inhibition zone at 100 ug/ml after 48 hr by agar cup bioassay; assay type: functional; conditions: read-out: DIZ
[3] = system: Staphylococcus epidermidis; assay: Antimicrobial activity against Staphylococcus epidermidis assessed as growth inhibition after 24 hr by broth dilution method; assay type: functional
[4] = system: Pseudomonas aeruginosa; assay: Antimicrobial activity against Pseudomonas aeruginosa assessed as growth inhibition after 24 hr by broth dilution method; assay type: functional
[5] = system: Aspergillus niger; assay: Antimicrobial activity against Aspergillus niger assessed as diameter of growth inhibition zone at 150 ug/ml after 48 hr by agar cup bioassay; assay type: functional; conditions: read-out: DIZ
[6] = system: Bacillus subtilis; assay: Antimicrobial activity against Bacillus subtilis assessed as growth inhibition after 24 hr by broth dilution method; assay type: functional
[7] = system: Escherichia coli; assay: Antimicrobial activity against Escherichia coli assessed as growth inhibition after 24 hr by broth dilution method; assay type: functional
[8] = system: Klebsiella pneumoniae; assay: Antimicrobial activity against Klebsiella pneumoniae assessed as growth inhibition after 24 hr by broth dilution method; assay type: functional
[9] = system: Aspergillus niger; assay: Antimicrobial activity against Aspergillus niger assessed as growth inhibition zone after 48 hr by agar cup bioassay; assay type: functional, organism-based
[10] = system: Aspergillus niger; assay: Antimicrobial activity against Aspergillus niger assessed as diameter of growth inhibition zone at 30 ug/ml after 48 hr by agar cup bioassay; assay type: functional; conditions: read-out: DIZ

O=C1NC(=O)C(=Cc2cn(-c3ccccc3)nc2-c2cc3cc(Br)c(Br)cc3oc2=O)C(=O)N1
MIC [1]: 150 mg/L (≈ 257 µM)
zone of inhibition at 100 µg/mL [2]: 7 mm
MIC [3]: 150 mg/L (≈ 257 µM)
MIC [4]: 150 mg/L (≈ 257 µM)
zone of inhibition at 150 µg/mL [5]: 10 mm
MIC [6]: 150 mg/L (≈ 257 µM)
MIC [7]: 150 mg/L (≈ 257 µM)
MIC [8]: 300 mg/L (≈ 514 µM)

O=C1NC(=S)NC(=O)C1=Cc1cn(-c2ccccc2)nc1-c1cc2cc(Cl)c(Cl)cc2oc1=O
MIC [1]: 150 mg/L (≈ 293 µM)
MIC [3]: 300 mg/L (≈ 587 µM)
MIC [4]: 300 mg/L (≈ 587 µM)
MIC [6]: 300 mg/L (≈ 587 µM)
MIC [7]: 600 mg/L (≈ 1170 µM)
MIC [8]: 150 mg/L (≈ 293 µM)
growth inhibition (GI) [9]: inactive

O=C1NC(=O)C(=Cc2cn(-c3ccccc3)nc2-c2cc3cc(Cl)c(Cl)cc3oc2=O)C(=O)N1
MIC [1]: 300 mg/L (≈ 606 µM)
MIC [3]: 300 mg/L (≈ 606 µM)
MIC [4]: 150 mg/L (≈ 303 µM)
MIC [6]: 300 mg/L (≈ 606 µM)
MIC [7]: 300 mg/L (≈ 606 µM)
MIC [8]: 150 mg/L (≈ 303 µM)
growth inhibition (GI) [9]: inactive

O=C1NC(=O)C(=Cc2cn(-c3ccccc3)nc2-c2cc3cc(Br)ccc3oc2=O)C(=O)N1
MIC [1]: 150 mg/L (≈ 297 µM)
zone of inhibition at 100 µg/mL [2]: 14 mm
MIC [3]: 150 mg/L (≈ 297 µM)
MIC [4]: 600 mg/L (≈ 1190 µM)
zone of inhibition at 150 µg/mL [5]: 20 mm
MIC [6]: 150 mg/L (≈ 297 µM)
MIC [7]: 600 mg/L (≈ 1190 µM)
MIC [8]: 150 mg/L (≈ 297 µM)

O=C1NC(=S)NC(=O)C1=Cc1cn(-c2ccccc2)nc1-c1cc2cc3ccccc3cc2oc1=O
MIC [1]: 150 mg/L (≈ 305 µM)
MIC [3]: 300 mg/L (≈ 609 µM)
MIC [4]: 150 mg/L (≈ 305 µM)
MIC [6]: 300 mg/L (≈ 609 µM)
MIC [7]: 600 mg/L (≈ 1220 µM)
MIC [8]: 150 mg/L (≈ 305 µM)
growth inhibition (GI) [9]: inactive

O=C1NC(=O)C(=Cc2cn(-c3ccccc3)nc2-c2cc3ccccc3oc2=O)C(=O)N1
MIC [1]: 300 mg/L (≈ 704 µM)
MIC [3]: 300 mg/L (≈ 704 µM)
MIC [4]: 150 mg/L (≈ 352 µM)
MIC [6]: 300 mg/L (≈ 704 µM)
MIC [7]: 300 mg/L (≈ 704 µM)
MIC [8]: 150 mg/L (≈ 352 µM)
growth inhibition (GI) [9]: inactive

O=C1NC(=S)NC(=O)C1=Cc1cn(-c2ccccc2)nc1-c1cc2ccccc2oc1=O
MIC [1]: 150 mg/L (≈ 339 µM)
MIC [3]: 150 mg/L (≈ 339 µM)
MIC [4]: 300 mg/L (≈ 678 µM)
MIC [6]: 300 mg/L (≈ 678 µM)
MIC [7]: 600 mg/L (≈ 1360 µM)
MIC [8]: 150 mg/L (≈ 339 µM)
growth inhibition (GI) [9]: inactive

O=C(O)c1cn(C2CC2)c2cc(N3CCNCC3)c(F)cc2c1=O [CIPROFLOXACIN]
MIC [3]: 22 mg/L (≈ 66.4 µM)
MIC [6]: 24 mg/L (≈ 72.4 µM)
MIC [7]: 20 mg/L (≈ 60.4 µM)
MIC [8]: 25 mg/L (≈ 75.4 µM)

O=C1NC(=S)NC(=O)C1=Cc1cn(-c2ccccc2)nc1-c1cc2cc(Cl)ccc2oc1=O
MIC [1]: 300 mg/L (≈ 629 µM)
MIC [3]: 600 mg/L (≈ 1260 µM)
MIC [4]: 150 mg/L (≈ 315 µM)
MIC [6]: 150 mg/L (≈ 315 µM)
MIC [7]: 300 mg/L (≈ 629 µM)
MIC [8]: 150 mg/L (≈ 315 µM)
growth inhibition (GI) [9]: inactive

O=C1NC(=O)C(=Cc2cn(-c3ccccc3)nc2-c2cc3cc4ccccc4cc3oc2=O)C(=O)N1
MIC [1]: 300 mg/L (≈ 630 µM)
MIC [3]: 300 mg/L (≈ 630 µM)
MIC [4]: 150 mg/L (≈ 315 µM)
MIC [6]: 150 mg/L (≈ 315 µM)
MIC [7]: 300 mg/L (≈ 630 µM)
MIC [8]: 300 mg/L (≈ 630 µM)
growth inhibition (GI) [9]: inactive

O=C1NC(=S)NC(=O)C1=Cc1cn(-c2ccccc2)nc1-c1cc2cc(Br)ccc2oc1=O
MIC [1]: 600 mg/L (≈ 1150 µM)
MIC [3]: 300 mg/L (≈ 575 µM)
MIC [4]: 300 mg/L (≈ 575 µM)
MIC [6]: 600 mg/L (≈ 1150 µM)
MIC [7]: 300 mg/L (≈ 575 µM)
MIC [8]: 150 mg/L (≈ 288 µM)
growth inhibition (GI) [9]: inactive

OC(Cn1cncn1)(Cn1cncn1)c1ccc(F)cc1F [FLUCONAZOLE]
zone of inhibition at 30 µg/mL [10]: 30 mm

O=C1NC(=S)NC(=O)C1=Cc1cn(-c2ccccc2)nc1-c1cc2cc(Br)c(Br)cc2oc1=O
MIC [1]: 150 mg/L (≈ 250 µM)
MIC [3]: 300 mg/L (≈ 500 µM)
MIC [4]: 150 mg/L (≈ 250 µM)
MIC [6]: 150 mg/L (≈ 250 µM)
MIC [7]: 150 mg/L (≈ 250 µM)
MIC [8]: 150 mg/L (≈ 250 µM)
growth inhibition (GI) [9]: inactive

O=C1NC(=O)C(=Cc2cn(-c3ccccc3)nc2-c2cc3cc(Cl)ccc3oc2=O)C(=O)N1
MIC [1]: 150 mg/L (≈ 325 µM)
MIC [3]: 150 mg/L (≈ 325 µM)
MIC [4]: 150 mg/L (≈ 325 µM)
MIC [6]: 150 mg/L (≈ 325 µM)
MIC [7]: 150 mg/L (≈ 325 µM)
MIC [8]: 150 mg/L (≈ 325 µM)
growth inhibition (GI) [9]: inactive
